From US20110065749A1, “METHOD AND PHARMACEUTICAL COMPOSITION FOR TREATMENT OF MENTAL DISORDERS” (ACTIVE CO. LTD., priority 2008, published 2011)
Where a name gives a salt, the structure may show the parent alone.

Key:
[1] = system: Attention Deficit Hyperactivity Disorder (ADHD); experiment: Case 1: ADHD patient treated with Cephadol; type: in vivo, human
Procedure: Case 1: Attention Deficit Hyperactivity Disorder (ADHD)
Patient was a person, who had often shown violent behaviors. Quarreling with a bad-mannered person on the road and performing violent acts such as hitting had occurred once or twice a week. […] When they discontinued the medication with 75 mg/day Cephadol®, the symptom returned to the previous state. The effect of Cephadol® appeared in about two days, and the symptom returned to the original state in 5 days after discontinuation of the drug.

Refractory Depression = experiment: Case 2: refractory depression patient, HAMD; type: in vivo, human
Source text: For evaluation of the state of depression, for example, Hamilton's rating scale for depression (HAMD) is available. The HAMD was developed by Max Hamilton in 1960 for the purpose of measuring the severity of a patient diagnosed with depression (Hamilton, M., Journal of Neurology, Neurosurgery & Psychiatry, 23-56-62 (1960) and Hamilton, M., “Development of rating scale for primary depressive illness”, British Journal of Social and Clinical Psychology, 6: 278-296 (1967)). In view of its high usefulness, it is a representative scale of evaluation for depression, widely used in clinical researches and practices. The 17 item version is used for clinical trials of antidepressants in Japan, whereas the 21 item version and the 24 item version are used in Europe or other countries. When the severity is calculated using Hamilton's rating scale for depression (HAMD), each item is evaluated with three grades of 0-2, or five grades of 0-4. For example, the case is diagnosed as severe where the point is 20 or higher and, as the point decreases, the symptom is diagnosed as being improved. Case 2: Refractory Depression Patient was a person, who was unresponsive to any combination of SSRIs, SNRIs, tricyclic antidepressants, and antianxiety agents in their respective maximum doses. The score of HAMD was 23 points. […] Increasing the dose of Cephadol® to 150 mg/day improved the score of HAMD to 3 points. The improvement lasted even after other antidepressants were removed. Even 3 months later, the score of HAMD was still 3 points. When the dose of Cephadol® was reduced to 75 mg/day, the score of HAMD became 13 points after one week.

[2] = system: Behavioral and Psychological Symptoms of Dementia; experiment: Case 5: behavioral and psychological symptoms of dementia; type: in vivo, human; conditions: 100 mg/day
Source text: Case 5: Effect on Behavioral and Psychological Symptoms of Dementia Patient was a person with dementia, who was irritable and easily excited, and had persecutory delusion.

Alcoholism = experiment: Case 6: alcoholism patient; type: in vivo, human
Source text: Case 6: Alcoholism Patient was a office worker, who was drinking 1 to 2 liters of beer and 3 to 5 glasses of distilled spirit or whisky with water every day. They were drinking alcohol in daytime on Sundays, and suffering from a complication of liver dysfunction.

Insomnia = experiment: Case 11: insomnia in an elderly person; type: in vivo, human
Procedure: Case 11: Insomnia in an Elderly Person A person had had no history of insomnia or depression before they retired from their company at mandatory retirement age. […] Being seriously distressed by insomnia, they had been prescribed hypnotics at two or three mental clinics. The hypnotics had made them easily fall down when going to the bathroom at night, and made them feel half awake in the morning, with memory impairment. The patient was started on 50 mg Cephadol® twice a day (after dinner and before sleeping).

Stiff Neck = experiment: Case 14: seven subjects having stiff neck; type: in vivo, human; conditions: two 25 mg tablets two times a day, after two days, all seven subjects
Procedure: Case 14: Stiff Neck Stiff neck is often observed as a subjective symptom, and is one of the most serious complaints in the daily life. Seven subjects having stiff neck were given two 25 mg tablets of Cephadol® two times a day (after dinner and before sleeping).

Fibromyalgia = experiment: Case 18: fibromyalgia (4) patient; type: in vivo, human
Source text: Case 18: Fibromyalgia (4)
A person (housewife) is a patient with depression, having received regular medical treatment since seven years ago. […] However, a diagnosis with autoimmune disease or inflammatory disease was negative from their blood test. Due to back pain and fingertip pain, they were unable to make household work, and it was painful for them to hold even a light object by hand. They had pain at 15 points among the 18 tender points of the whole body, and was diagnosed with fibromyalgia. […] They had to stay in bed all day long, and such a condition lasted for the long term.

[3] = system: evoked potential of hypothalamus by vestibular nuclei stimulation; conditions: rat experiments; cited from earlier work
[4] = 50 mg twice a day, hypnotics halved

## OC(CCCN1CCCCC1)(c1ccccc1)c1ccccc1 [Cephadol®, 1,1-diphenyl-4-piperidine-1-ylbuthan-1-ol monohydrochloride]
[1]; 75 mg/day
  side effects: no side effects
[1]; 75 mg/day, on day seven
  impulsivity: disappearance of the impulsivity
[1]; 75 mg/day, on day two
  impulsivity: reduction of impulsivity
[1]; after discontinuation of 75 mg/day
  time until the symptom returned to the original state after discontinuation of the drug: 5 days
Refractory Depression; 75 mg/day, HAMD 23 points before
  depressive symptom: significant improvement
Refractory Depression; 150 mg/day, 3 months later, other antidepressants removed
  score of HAMD: 3 points
Refractory Depression; 75-150 mg/day
  side effects: no side effects
Refractory Depression; dose increased to 150 mg/day, 23 points before
  score of HAMD: 3 points
Refractory Depression; dose reduced to 75 mg/day, after one week
  score of HAMD: 13 points
[2]
  mental stability: significantly improved mental stability
  nuisance behaviors caused by the persecutory delusion: prevented their nuisance behaviors to other people
  side effects: no side effects
Alcoholism; 150 mg/day continued for three months
  overdrinking: without any emergence of overdrinking
Alcoholism; 150 mg/day for three months
  side effects: without any side effects
Alcoholism; 150 mg/day, on the next day
  impulse to drink alcohol: eliminated their impulse to drink alcohol
  restlessness and anxiety: eliminated their restlessness and anxiety
Insomnia; 50 mg twice a day
  dose of concomitant hypnotics: reduced in dose by half
  side effects: no side effects
Insomnia; 50 mg twice a day (after dinner and before sleeping)
  sleep: became able to sleep well
Insomnia; [4]
  memory impairment on the next morning: without memory impairment
  staggering gait on awaking at night: free from staggering gait on awaking at night
Stiff Neck
  stiff neck symptom: disappearance or a significant improvement of the symptom
Fibromyalgia; 75 mg/day
  malaise: significant improvement in malaise
Fibromyalgia; 125 mg/day
  mobility of large joints (objective): the mobility of large joints increased
Fibromyalgia; dose increased to 125 mg/day
  back pain and fingertip pain: improved the back pain and fingertip pain
[3]
  evoked potential of hypothalamus by vestibular nuclei stimulation: inhibited the evoked potential of hypothalamus by vestibular nuclei stimulation
